Tests used:
[1] = system: SD rats; settings: cited from earlier work; for hypotensive and bradycardiac effects: 1 min after intravenous administration, SD rats under pentobarbital anesthesia; for dose dependence of hypotensive and bradycardiac effects: salusin-α 1-10 nmol/kg, salusin-β 0.1-1 nmol/kg
[2] = system: isolated rat aortic preparation; settings: intact and endothelium-detached preparations, unconstricted or constricted with phenylephrine; cited from earlier work
[3] = Cardioinhibitory or hypotensive activity of deletion variants and homologue (method not described); settings: variants of SEQ ID No: 2
[4] = system: isolated, perfused rat hearts; experiment: Isolated heart working model (isolated perfused rat heart); settings: for cardiac contractility (inotropism): rat hearts, direct action on heart
Method: Isolated heart working model was used for estimating direct effect on cardiac muscle, according to a method described previously (Nat Med 9:[…], 2003). A heart isolated from a rat was set on an isolated heart perfusion apparatus (Primetech Corporation, IPH-W2) which was perfused with a Krebs Henseleit Buffer at 37° C., and stabilized. Subsequently, synthetic peptides were administered (10^−8 mol/l). Then, HR, SP, DP, MAP and aortic flow (AF) were measured over a period of 15 min. Coronary flow (CF) was measured by collecting coronary sinus effluent before and at 5 and 10 min after administering the peptide agent. Based on the obtained data, cardiac output (CO) was calculated by adding AF and CF, whereas stroke volume (SV) was obtained by dividing CO by HR, and then normalized by the heart volume of each rat.

[5] = system: intact-rats; experiment: Effect of synthesized peptide on intact anesthetized rats (blood pressure, heart rate, aortic flow); type: in vivo, rat; settings: for hypotensive effect: anesthetized SD rats, synthetic peptide 10 nmol/kg intravenously
Method: Meanwhile, a peptide of the present invention consisting of the amino acid sequence shown by SEQ ID No: 2 determined in Example 1, was synthesized with the use of a peptide synthesizer (Shimadzu, PSSM-8), and tested in the following experiment. SD rats weighing 400 to 525 g were used as test animals.
SD rats were anesthetized by intraperitoneal pentobarbital sodium (50 mg/kg), and a synthesized peptide was administered intravenously via a catheter placed in the […]. Heart rates and blood pressure were measured according to a method described previously (Nat Med 9: 1166-72, 2003) with the use of an electromagnetic flowmeter (MFV-1100, Nihon Koden). Further, a flowmeter was attached to the abdominal aorta, and aortic flow was measured according to the above method described previously. Synthetic peptides (10 nmol/kg) were administered intravenously over a period of 15 seconds or more, and systolic pressure (SP), diastolic pressure (DP) mean aortic pressure (MAP), heart rate (HR) were measured. A hypotensive effect of a synthetic peptide of the present invention was observed.

[6] = intravenous administration into anesthetized rats

## salusin-α: related peptide of 28 amino acids biosynthesized by processing of preprosalusin (SGALPPAPAAPRPALRAQRAGPAGPGAK; salusin-alpha)
[1]
  hypotensive and bradycardiac effects: rapid hypotensive and bradycardiac effects
  hypotensive effects after pretreatment with NO synthase inhibitor L-NAME: not affected
  dose dependence of hypotensive and bradycardiac effects: dose-responsive
[2]
  direct effect on isolated rat aorta: did not show any direct effect

## (1-20): SEQ ID No: 2 wherein 4 amino acids at C-terminal end are deleted (AIFIFISNTGGKQINQVALE; listed as Homo sapiens)
[3]
  cardioinhibitory activity or hypotensive activity: potent cardioinhibitory activity or hypotensive activity is maintained

## salusin-β: related peptide of 20 amino acids biosynthesized by processing of preprosalusin (AIFIFIRWLLKLGHHGRAPP; salusin-beta)
[1]
  hypotensive and bradycardiac effects: rapid hypotensive and bradycardiac effects
  hypotensive effects after pretreatment with NO synthase inhibitor L-NAME: not affected
  dose dependence of hypotensive and bradycardiac effects: dose-responsive
[1]; hypotensive and bradycardiac effects
  potency compared to salusin-α: approximately 10 fold
[2]
  direct effect on isolated rat aorta: did not show any direct effect

## (5-24): SEQ ID No: 2 wherein 4 amino acids at N terminal end are deleted (FISNTGGKQINQVALEAWRS; listed as Homo sapiens)
[3]
  cardioinhibitory activity or hypotensive activity: potent cardioinhibitory activity or hypotensive activity is maintained

## (2-13): SEQ ID No: 2 wherein 11 amino acids at C-terminal end and 1 amino acid at N-terminal end are deleted (IFIFISNTGGKQ; listed as Homo sapiens)
[3]
  cardioinhibitory activity or hypotensive activity: the activity is somewhat decreased

## AIFIFISNTGGKQINQVALEAWRS (listed as Homo sapiens) [peptide of the present invention, human-derived 24 amino acid peptide translated from TOR2A mRNA]
[4]; isolated rat heart, peptide 10^−8 mol/l, before and at 5 and 10 min, FIG. 2
  coronary flow: lowering coronary flow
[4]
  cardiac contractility (inotropism): potently reduce cardiac contractility
[4]; listed as This peptide
  cardiac contractility (inotropism): negative inotropism
[5]; FIG. 1, listed as This peptide
  hypotensive effect: significant hypotensive activity
[5]; FIG. 1, listed as synthetic peptide of the present invention
  hypotensive effect: observed
[5]; [6]
  aortic blood flow: reduced
  heart rates: reduced
[5]; intravenous administration into anesthetized rats, FIG. 1
  aortic pressure: marked lowering
[5]; rank among endogenous peptides, FIG. 2
  negative inotropic and chronotropic effects: most potent endogenous peptide identified thus far

— patent US7829526B2, “Cardioinhibitory/antihypertensive novel endogenous physiologically active peptide” (Japan Science and Technology Agency, priority 2004, dated 2010)
